# Data: paper PMC7311396, “Ultra-large chemical libraries for the discovery of high-affinity peptide binders” (Nature Communications, 2020)
# Where two headings read alike, the source gives them in different places. Non-standard residues stand in square brackets, D forms with d. Residues, ends and D or L forms follow the SMILES beside them. *: point of attachment. FITC = O=C1OC2(c3ccc(O)cc3Oc3cc(O)ccc32)c2ccc(NC(=S)*)cc21; Phe(4-NO2) = N[C@@H](Cc1ccc([N+](=O)[O-])cc1)C(=O)O; Ala(4-thiazolyl) = N[C@@H](Cc1cscn1)C(=O)O; β3hT = C[C@@H](O)[C@H](N)CC(=O)O; pS = N[C@@H](COP(=O)(O)O)C(=O)O; Aad = N[C@@H](CCCC(=O)O)C(=O)O; Cha = N[C@@H](CC1CCCCC1)C(=O)O; β3hS = N[C@@H](CO)CC(=O)O; Orn = NCCC[C@H](N)C(=O)O; Nva = CCC[C@H](N)C(=O)O; βAla = NCCC(=O)O
# What was measured:
# 14-3-3γ [1] = biological target: T1, 14-3-3γ (Homo sapiens, UniProt P61981); experiment: Direct fluorescence anisotropy binding assay
# T1 construct: Full-length human 14-3-3γ was expressed by transforming pROEX HTb plasmid; His6; made in house; host or cells: Rosetta(DE3) Escherichia coli
# T1 sequence (P61981 1-247): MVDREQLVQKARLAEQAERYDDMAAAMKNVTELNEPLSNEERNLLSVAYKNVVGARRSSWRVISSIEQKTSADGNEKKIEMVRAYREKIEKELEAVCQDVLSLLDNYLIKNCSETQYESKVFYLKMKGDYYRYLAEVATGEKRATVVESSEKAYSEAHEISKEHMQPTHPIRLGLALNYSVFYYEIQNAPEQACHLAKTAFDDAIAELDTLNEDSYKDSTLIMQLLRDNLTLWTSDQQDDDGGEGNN
# Experimental: (§1) All direct fluorescence anisotropy affinity measurements were conducted in FA buffer (10 mM HEPES pH 7.4, 150 mM NaCl, 0.1% (v/v) Tween 20, 0.1% (w/v) BSA). A 1:1 dilution series of 14-3-3γ (starting at 100 μM) was performed in polystyrene non-binding low-volume Corning Black Round Bottom 384-well plates (Corning 4514) containing a fixed concentration FITC-labeled peptide (10 nM or 50 nM). Measurements were performed at ambient temperature using a Tecan Infinite F500 plate reader with the following parameters: λex: 485 (20) nm; λem: 535 (25) nm; mirror: Dichroic 510; flashes: 20; integration time: 50 μs; settle time; 0 μs; gain: manual 90; Z-position: calculated from well. The G-factor was set at 35 mP based on wells containing only the FITC-labeled peptide.
# Fluorescence anisotropy binding assay of 14-3-3γ-binding peptides:
# as §1, with “All” for “All direct”, “BSA). During each assay a” for “BSA). A”, “series” for “series of 14-3-3γ”, “μM) of 14-3-3γ” for “μM)”, “was made in wells containing a fixed concentration FITC-labeled peptide (10 nM or 50 nM). This was done” for “was performed”, “(Corning 4514).” for “(Corning 4514) containing a fixed concentration FITC-labeled peptide (10 nM or 50 nM).”
# 14-3-3γ [2] = biological target: T1, 14-3-3γ; experiment: Fluorescence anisotropy competition assay with FITC-labeled BiExoS; type: binding
# Experimental: All fluorescence anisotropy competition experiments were conducted in FA buffer (10 mM HEPES pH 7.4, 150 mM NaCl, 0.1% (v/v) Tween-20, 0.1% (w/v) BSA). A 1:1 dilution series of unlabeled peptides (starting at 10 μM) were performed in wells containing a fixed concentration FITC-labeled biExoS (10 nM) and 14-3-3γ (20 nM). Measurements were performed at ambient temperature using a Tecan Infinite F500 plate reader with the following parameters: λex = 485 (20) nm; λem = 535 (25) nm, mirror: Dichroic = 510, flashes: 20; integration time: 50 μs; settle time: 0 μs; gain: manual 90; and Z-position: calculated from well. The G-factor was set at 35 mP based on wells containing only the FITC-labeled peptide.
# Competition fluorescence anisotropy binding assay of 14-3-3γ-binding peptides:
# All fluorescence anisotropy affinity measurements were conducted in FA buffer (10 mM HEPES pH 7.4, 150 mM NaCl, 0.1% (v/v) Tween-20, 0.1% (w/v) BSA). During each assay a 1:1 dilution series (starting at 10 μM) of unlabeled peptides were made in wells containing a fixed concentration FITC-labeled biExoS (10 nM; FITC-O1Pen- […]
# […](GGSGGGGSGG)[…]-CONH2)5, and 14-3-3γ (20 nM).
# This is done in polystyrene non -binding low-volume Corning Black Round Bottom 384 - well plates (Corning 4514). Measurements were performed at ambient temperature using a Tecan Infinite F500 plate reader with the following parameters : λex = 485 (20) nm; λem = 535 (25) nm, mirror: Dichroic = 510, flashes: 20; integration time: 50 μs; settle time: 0 μs; gain: manual 90; and Z-position: calculated from well. The G-factor was set at 35 mP based on wells containing only the FITC-labeled peptide.
# 14-3-3σΔc = biological target: T2, 14-3-3σΔc (Homo sapiens, UniProt P31947); experiment: Direct fluorescence anisotropy binding validation with 14-3-3σΔc; details: 14-3-3σ
# T2 construct: The 14-3-3σ isoform with a truncated C-terminus after T321; His6 (cleaved yes); made in house; host or cells: BL21(DE3) Escherichia coli
# T2 sequence (P31947 1-231 limits assumed): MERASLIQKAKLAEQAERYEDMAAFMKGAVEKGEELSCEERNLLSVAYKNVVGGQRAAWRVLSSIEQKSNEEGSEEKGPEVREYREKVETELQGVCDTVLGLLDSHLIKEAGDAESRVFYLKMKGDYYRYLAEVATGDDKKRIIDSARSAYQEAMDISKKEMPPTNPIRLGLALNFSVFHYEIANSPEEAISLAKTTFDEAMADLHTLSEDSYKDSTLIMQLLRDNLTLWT
# [3] = FITC-labeled peptide (10 or 50 nM), 14-3-3γ dilution from 100 μM, FA buffer pH 7.4, ambient temperature, ± 95% confidence interval, read-out: KD
compound,measurement,setting,value
CC(C)C[C@@H](N)C(=O)N[C@@H](Cc1ccc([N+](=O)[O-])cc1)C(=O)N[C@@H](CO)CC(=O)N[C@@H](Cc1ccc([N+](=O)[O-])cc1)C(=O)N[C@@H](COP(=O)(O)O)C(=O)N[C@@H](Cc1ccc([N+](=O)[O-])cc1)C(=O)N[C@@H](CO)CC(=O)NCCC(=O)N[C@@H](Cc1ccc([N+](=O)[O-])cc1)C(=O)N[C@@H](CCCCN)C(N)=O [14-3-3.1] (H-[dL][Phe(4-NO2)][β3hS][Phe(4-NO2)][pS][Phe(4-NO2)][β3hS][βAla][Phe(4-NO2)]K-NH2),Kd,"14-3-3γ [1]; KD, FITC-labeled peptide (10 or 50 nM), 14-3-3γ dilution from 100 μM, FA buffer pH 7.4, ambient temperature, ± 95% confidence interval",5.7 ± 1 nM
same,IC50,14-3-3γ [2],465 ± 45 nM
NCCCC[C@H](NC(=O)[C@H](Cc1ccc([N+](=O)[O-])cc1)NC(=O)C[C@H](CO)NC(=O)C[C@H](CO)NC(=O)[C@H](Cc1ccc([N+](=O)[O-])cc1)NC(=O)[C@H](COP(=O)(O)O)NC(=O)[C@H](CCCN)NC(=O)C[C@H](CO)NC(=O)[C@H](CC1CCCCC1)NC(=O)[C@@H](N)CC1CCCCC1)C(N)=O [14-3-3.6] (H-[Cha][Cha][β3hS][Orn][pS][Phe(4-NO2)][β3hS][β3hS][Phe(4-NO2)]K-NH2; N-terminus and C-terminus assumed),Kd,14-3-3γ [1]; [3],3.1 ± 0.3 nM
same,IC50,"14-3-3γ [2]; unlabeled peptide from 10 μM, 10 nM FITC-labeled biExoS, 20 nM 14-3-3γ, FA buffer pH 7.4, ambient temperature, read-out: IC50",77 ± 8 nM
CCC[C@H](NC(=O)[C@H](N)CCCCN)C(=O)N[C@@H](Cc1ccc([N+](=O)[O-])cc1)C(=O)N[C@@H](Cc1cscn1)C(=O)N[C@@H](COP(=O)(O)O)C(=O)N[C@@H](Cc1ccc([N+](=O)[O-])cc1)C(=O)N[C@@H](CO)CC(=O)NCCC(=O)N[C@@H](Cc1ccc([N+](=O)[O-])cc1)C(=O)N[C@@H](CCCCN)C(=O)NCCC(=O)N[C@@H](CCCCNC(=S)Nc1ccc2c(c1)C(=O)OC21c2ccc(O)cc2Oc2cc(O)ccc21)C(N)=O [FITC-labeled 14-3-3.12] (H-[dK][Nva][Phe(4-NO2)][Ala(4-thiazolyl)][pS][Phe(4-NO2)][β3hS][βAla][Phe(4-NO2)]K[βAla]K(FITC)-NH2),Kd,"14-3-3γ [1]; Kd, 14-3-3γ, 0 h after incubation",19.5 nM
same,Kd,"14-3-3γ [1]; Kd, 14-3-3γ, 4 h after incubation",19.4 nM
same,Kd,"14-3-3γ [1]; Kd, 14-3-3γ, 20 h after incubation",21.9 nM
same,Kd,14-3-3σΔc; 0 h after incubation,229 nM
same,Kd,14-3-3σΔc; 4 h after incubation,169 nM
same,Kd,14-3-3σΔc; 20 h after incubation,102 nM
C[C@@H](O)[C@@H](CC(=O)N[C@@H](CCCCN)C(N)=O)NC(=O)[C@H](Cc1ccc([N+](=O)[O-])cc1)NC(=O)[C@H](Cc1cscn1)NC(=O)[C@H](CCCC(=O)O)NC(=O)[C@H](COP(=O)(O)O)NC(=O)[C@H](Cc1cscn1)NC(=O)[C@@H](CCC(N)=O)NC(=O)C[C@H](CO)NC(=O)[C@H](N)CCCCN [NB.1] (H-[dK][β3hS][dQ][Ala(4-thiazolyl)][pS][Aad][Ala(4-thiazolyl)][Phe(4-NO2)][β3hT]K-NH2; N-terminus and C-terminus assumed),Kd,14-3-3γ [1]; [3],64000 ± 20000 nM
same,fold weaker binding than the 14-3-3γ-binding peptides,"14-3-3γ [1]; fluorescence anisotropy, FITC-labeled peptides","~ 10,000 fold"
same,inhibitory activity (competition with BiExoS),"14-3-3γ [2]; unlabeled peptide, 10 nM FITC-labeled biExoS, 20 nM 14-3-3γ",no inhibitory activity
